These results are taken from PubChem BioAssay AID330 (DTP/NCI, 2004).

For this assay, the system named is P388 leukemia ip, CD2F1 mice, survival T/C. Description: NCI In Vivo Anticancer Drug Screen. Data for tumor model P388 Leukemia (intraperitoneal) in CD2F1 (CDF1) mice. As to conditions: endpoint: median survival time, higher = longer survival. Summed up:
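Mice carrying the transplanted tumor received test compound or vehicle. Survival was recorded in each group, and the value is the treated-group measurement divided by that of the vehicle-treated control group.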

The mark [1] stands for this setting: dose: 60.0 mg/kg/injection, schedule: Q01DX005 (ip), vehicle: saline with Tween-80.
The mark [2] stands for this setting: dose: 50.0 mg/kg/injection, schedule: Q01DX009 (ip), vehicle: Klucel (hydroxypropylcellulose) (HPC).
[3] abbreviates: dose: 100.0 mg/kg/injection, schedule: Q01DX009 (ip), vehicle: Klucel (hydroxypropylcellulose) (HPC).
Where [4] appears, read: dose: 200.0 mg/kg/injection, schedule: Q01DX009 (ip), vehicle: Klucel (hydroxypropylcellulose) (HPC).
Setting [5] is: dose: 50.0 mg/kg/injection, schedule: Q01DX005 (ip), vehicle: Klucel (hydroxypropylcellulose) (HPC).
[6] abbreviates: dose: 100.0 mg/kg/injection, schedule: Q01DX005 (ip), vehicle: Klucel (hydroxypropylcellulose) (HPC).
Where [7] appears, read: dose: 200.0 mg/kg/injection, schedule: Q01DX005 (ip), vehicle: Klucel (hydroxypropylcellulose) (HPC).
The mark [8] stands for this setting: dose: 8.0 mg/kg/injection, schedule: Q01DX009 (ip), vehicle: saline.

“And” between values parts separate entries of the source, which are not always exact repeats. Equal values may be shown once. Inconclusive results and toxic doses are left out.

Regarding `CC(=O)Oc1ccc[nH]c1=S`, the T/C by setting is: (dose: 12.5 mg/kg/injection, schedule: Q01DX009 (ip), vehicle: saline) 101 % of control and 103 % of control; (dose: 25.0 mg/kg/injection, schedule: Q01DX009 (ip), vehicle: saline) 104 % of control and 106 % of control; (dose: 50.0 mg/kg/injection, schedule: Q01DX009 (ip), vehicle: saline) 99 % of control and 102 % of control; (dose: 100.0 mg/kg/injection, schedule: Q01DX008 (ip), vehicle: saline) 104 % of control and 106 % of control; (dose: 100.0 mg/kg/injection, schedule: Q01DX009 (ip), vehicle: saline) 100 % of control and 104 % of control; (dose: 200.0 mg/kg/injection, schedule: Q01DX008 (ip), vehicle: saline) 105 % of control and 110 % of control. The T/C was 109 % of control and 113 % of control (dose: 200.0 mg/kg/injection, schedule: Q01DX009 (ip), vehicle: saline); 120 % of control (dose: 400.0 mg/kg/injection, schedule: Q01DX008 (ip), vehicle: saline); 96 % of control (dose: 400.0 mg/kg/injection, schedule: Q01DX009 (ip), vehicle: saline).

As for `COc1ccc(C(Cl)(c2ccccc2)c2ccc(C(C)=O)cc2)cc1` (stereo not given), the T/C runs as follows: (dose: 15.0 mg/kg/injection, schedule: Q01DX005 (ip), vehicle: saline with Tween-80) 107 % of control; (dose: 30.0 mg/kg/injection, schedule: Q01DX005 (ip), vehicle: saline with Tween-80) 101 % of control; under setting [1], 88 % of control and 97 % of control.

Take `CCOc1ccccc1N=Nc1c(C)nn(C(N)=S)c1OCC`: the T/C reads like this: (dose: 60.0 mg/kg/injection, schedule: Q01DX005 (ip), vehicle: Klucel (hydroxypropylcellulose) (HPC)) 106 % of control; (dose: 120.0 mg/kg/injection, schedule: Q01DX005 (ip), vehicle: Klucel (hydroxypropylcellulose) (HPC)) 116 % of control; (dose: 240.0 mg/kg/injection, schedule: Q01DX005 (ip), vehicle: Klucel (hydroxypropylcellulose) (HPC)) 115 % of control.

Consider `CC1(C)OC2OC(COC(=O)c3ccccc3)C(=O)C2O1` (stereo not given), for which the T/C (dose: 3.13 mg/kg/injection, schedule: Q01DX009 (ip), vehicle: saline with Tween-80) is 95 % of control; the T/C (dose: 6.25 mg/kg/injection, schedule: Q01DX009 (ip), vehicle: saline with Tween-80) is 93 % of control; the T/C (dose: 12.5 mg/kg/injection, schedule: Q01DX009 (ip), vehicle: saline with Tween-80) is 89 % of control.

Turning to `C=Cc1cc(=O)oc2cc(OC)ccc12`, the T/C was 106 % of control and 94 % of control (dose: 12.5 mg/kg/injection, schedule: Q01DX005 (ip), vehicle: saline with Tween-80); 108 % of control and 95 % of control (dose: 25.0 mg/kg/injection, schedule: Q01DX005 (ip), vehicle: saline with Tween-80); 105 % of control and 115 % of control and 121 % of control (dose: 50.0 mg/kg/injection, schedule: Q01DX005 (ip), vehicle: saline with Tween-80); 105 % of control (dose: 100.0 mg/kg/injection, schedule: Q01DX005 (ip), vehicle: saline with Tween-80).

On to `Nc1nc2ncc(CN(C(=O)CCl)c3ccc(C(=O)NC(CCC(=O)O)C(=O)O)cc3)nc2c(=O)[nH]1` (stereo not given), for which the T/C is, setting by setting: under setting [2], 95 % of control; under setting [3], 107 % of control; under setting [4], 108 % of control.

As for `Cc1ccc(NC(O)(C(F)(F)F)C(F)(F)F)cc1`, the T/C (dose: 100.0 mg/kg/injection, schedule: Q04DX002 (ip), vehicle: Klucel (hydroxypropylcellulose) (HPC)) is 100 % of control; the T/C (dose: 200.0 mg/kg/injection, schedule: Q04DX002 (ip), vehicle: Klucel (hydroxypropylcellulose) (HPC)) is 97 % of control; the T/C (dose: 400.0 mg/kg/injection, schedule: Q04DX002 (ip), vehicle: Klucel (hydroxypropylcellulose) (HPC)) was 96 % of control.

Turning to `CCCN(CCC)CN1C(=O)c2ccccc2C1=O`, the T/C (dose: 25.0 mg/kg/injection, schedule: Q01DX005 (ip), vehicle: Klucel (hydroxypropylcellulose) (HPC)) is 106 % of control and 92 % of control; the T/C under setting [5] was 100 % of control and 105 % of control and 106 % of control; the T/C under setting [6] is 109 % of control and 89 % of control and 95 % of control; the T/C under setting [7] was 99 % of control and 108 % of control.

Regarding `C[N+](C)(C)CC(C[N+](C)(C)C)C(=O)c1ccccc1`, the T/C is, setting by setting: (dose: 6.25 mg/kg/injection, schedule: Q01DX009 (ip), vehicle: Klucel (hydroxypropylcellulose) (HPC)) 107 % of control; (dose: 12.5 mg/kg/injection, schedule: Q01DX009 (ip), vehicle: Klucel (hydroxypropylcellulose) (HPC)) 108 % of control.

As to `COC(=O)c1ccccc1N=Nc1ccc(N(CCCl)CCCl)cc1`, the T/C (dose: 50.0 mg/kg/injection, schedule: Q01DX001 (ip), vehicle: Klucel (hydroxypropylcellulose) (HPC)) is 112 % of control; the T/C (dose: 100.0 mg/kg/injection, schedule: Q01DX001 (ip), vehicle: Klucel (hydroxypropylcellulose) (HPC)) was 108 % of control; the T/C (dose: 200.0 mg/kg/injection, schedule: Q01DX001 (ip), vehicle: Klucel (hydroxypropylcellulose) (HPC)) is 113 % of control.

For the compound `COc1cc(C(=O)NCC(=O)NN=C(C)C)cc(OC)c1OC`, the T/C was 104 % of control under setting [5], 95 % of control under setting [6] and 107 % of control under setting [7].

In the case of `O=[N+]([O-])c1ccc(/C=C/C(CCN2CCOCC2)=N/O)cc1`, the T/C reads like this: under setting [1], 104 % of control; (dose: 120.0 mg/kg/injection, schedule: Q01DX005 (ip), vehicle: saline with Tween-80) 99 % of control; (dose: 240.0 mg/kg/injection, schedule: Q01DX005 (ip), vehicle: saline with Tween-80) 103 % of control.

With `CC1(C)N=C(N)N=C(N)N1c1ccc(CCCCc2ccc(Cl)c(S(=O)(=O)F)c2)c(Cl)c1`, the T/C is 154 % of control (dose: 2.0 mg/kg/injection, schedule: Q01DX009 (ip), vehicle: saline with Tween-80); 154 % of control (dose: 8.0 mg/kg/injection, schedule: Q01DX009 (ip), vehicle: saline with Tween-80); 172 % of control and 175 % of control under setting [8]; 180 % of control and 181 % of control (dose: 12.0 mg/kg/injection, schedule: Q01DX009 (ip), vehicle: saline); 163 % of control and 172 % of control and 180 % of control (dose: 18.0 mg/kg/injection, schedule: Q01DX009 (ip), vehicle: saline); 154 % of control and 172 % of control (dose: 27.0 mg/kg/injection, schedule: Q01DX009 (ip), vehicle: saline).

Turning to `COC(C(=O)O)(c1ccccc1)C(F)(F)F` (stereo not given), the T/C reads like this: (dose: 60.0 mg/kg/injection, schedule: Q01DX005 (ip), vehicle: saline) 100 % of control; (dose: 120.0 mg/kg/injection, schedule: Q01DX005 (ip), vehicle: saline) 109 % of control.

For the compound `CC1COS(=O)O1` (stereo not given), the T/C runs as follows: (dose: 20.0 mg/kg/injection, schedule: Q01DX009 (ip), vehicle: saline sonified) 109 % of control; (dose: 40.0 mg/kg/injection, schedule: Q01DX009 (ip), vehicle: saline sonified) 109 % of control.

Regarding `Cc1nnc2c(NO)nccn12`, the T/C was 99 % of control (dose: 75.0 mg/kg/injection, schedule: Q01DX001 (ip), vehicle: saline); 101 % of control (dose: 150.0 mg/kg/injection, schedule: Q01DX001 (ip), vehicle: saline); 96 % of control (dose: 300.0 mg/kg/injection, schedule: Q01DX001 (ip), vehicle: saline).

Turning to `COc1ccc([N+](=O)[O-])c(C=O)c1OS(=O)(=O)c1ccc(C)c([N+](=O)[O-])c1`, the T/C was 93 % of control (dose: 25.0 mg/kg/injection, schedule: Q01DX009 (ip), vehicle: distilled water + Tween-80); 98 % of control (dose: 100.0 mg/kg/injection, schedule: Q01DX009 (ip), vehicle: distilled water + Tween-80); 90 % of control (dose: 200.0 mg/kg/injection, schedule: Q01DX009 (ip), vehicle: distilled water + Tween-80); 90 % of control (dose: 400.0 mg/kg/injection, schedule: Q01DX009 (ip), vehicle: distilled water + Tween-80).

Regarding `C/C=C1/C[N+]2(C)CCC34c5ccccc5NC32C(O)CC1C4(CO)C(=O)OC` (stereo not given), the T/C was 109 % of control (dose: 2.0 mg/kg/injection, schedule: Q01DX009 (ip), vehicle: saline); 106 % of control (dose: 4.0 mg/kg/injection, schedule: Q01DX009 (ip), vehicle: saline); 100 % of control under setting [8]; 106 % of control (dose: 16.0 mg/kg/injection, schedule: Q01DX009 (ip), vehicle: saline).

With `CC(C)N(Cc1ccccc1)C(=O)Nc1ccc(Cc2ccc(NC(=O)N(Cc3ccccc3)C(C)C)cc2)cc1`, the T/C by setting is: under setting [2], 90 % of control; under setting [3], 96 % of control; under setting [4], 93 % of control.

In the case of `O=c1[nH]c(CN2CCOCC2)ncc1C1CCCCC1`, the T/C (dose: 50.0 mg/kg/injection, schedule: Q01DX009 (ip), vehicle: saline with Tween-80) was 97 % of control; the T/C (dose: 100.0 mg/kg/injection, schedule: Q01DX009 (ip), vehicle: saline with Tween-80) is 100 % of control; the T/C (dose: 200.0 mg/kg/injection, schedule: Q01DX009 (ip), vehicle: saline with Tween-80) is 95 % of control.
